Assay results from patent publication US9556229B2, “Modification of peptides using a bis(thioether)arylbridge approach” (priority 2012, dated 2017).
Starred links: 1 amine or outer side, 2 acyl side, 3 side chain; linkers in the order of their positions; H or OH if unused. Positions of bridges follow the written chain, without caps; N, C: chain ends. Non-standard residues stand in square brackets, D forms with d. Residues, ends and D or L forms follow the SMILES beside them. ξ: configuration not given here. Phe(F5) = N[C@@H](Cc1c(F)c(F)c(F)c(F)c1F)C(=O)O; X1 = O=C(Cc1ccc(CSCCCCN[*:1])cc1)[*:2]; 1Nal = N[C@@H](Cc1cccc2ccccc12)C(=O)O; oXylylene = c1ccc(C[*:2])c(C[*:1])c1; Cha = N[C@@H](CC1CCCCC1)C(=O)O; ξDisc = O=C(O)C1NCc2ccccc21; β3hP = O=C(O)C[C@@H]1CCCN1; Inp = O=C(O)C1CCNCC1

Columns and labels:
HCT116/SCID = experiment: Mouse subcutaneous engraftment model (HCT116/SCID); format: in vivo
Text: Based on analysis of p53/MDM2 and PMI-N8A/MDM2 crystal structures we placed various combinations of (L)- and (D)Cys residues in specific positions of PMI sequence considering the importance of particular amino acids for peptide bioactivity (see, e.g., Tables 1 and 2. Particular combinations were in turn tAB-ed using selected bis-halogeno-aryl compounds (see, e.g., FIG. 1) that fit into spatial arrangements/dimensions available, based on computer aided molecular modeling. Since ^DPMI-a presumably lack cell permeating properties, in addition we engineered several analogues as a cell permeating compounds containing multiple Arg residues simultaneously employing combination of D- and unusual amino acids to further enhance stability and binding properties of the peptide. Analogues were subsequently tested in vitro using HCT116 colorectal cancer cells and PrestoBlue™ assay (Invitrogen). […] Selected analogues were also tested in vivo using mouse subcutaneous engraftment model (HCT116/SCID).

[1] = system: HCT116 colorectal cancer cells

| EC50 [1] [µM] | Compound | tumor growth delay (HCT116/SCID) [days] |
| --- | --- | --- |
| 11.2 ± 1.2 | N=C(N)NCCC[C@@H](N)C(=O)N[C@@H](CCCNC(=N)N)C(=O)N[C@@H](Cc1c(F)c(F)c(F)c(F)c1F)C(=O)N[C@@H](CCCNC(=N)N)C(=O)N[C@@H]1CSCc2ccccc2CSC[C@@H](C(=O)N[C@H](CCCNC(=N)N)C(=O)N[C@@H](CC2CCCCC2)C(=O)N[C@@H](CCCNC(=N)N)C(=O)N2Cc3ccccc3C2C(N)=O)NC(=O)[C@H](Cc2cccc3ccccc23)NC(=O)[C@H](Cc2ccc(O)cc2)NC1=O (stereo partly drawn) [ArB14Co, Arg-Arg-PhF-Arg-Cys-Tyr-Na1-Cys-Arg-Cha-Arg-DISC] (H-[dR]R[Phe(F5)]R[dC]Y[1Nal]C[dR][Cha]R[ξDisc]-NH2; linker 5-8 via oXylylene) | ~14.6 |
| 23.4 ± 2.1 | C[C@@H]1NC(=O)[C@H](CCCNC(=N)N)NC(=O)C[C@@H]2CCCN2C(=O)Cc2ccc(cc2)CSCCCCNC(=O)C2CCN(CC2)C(=O)[C@@H](CCCCN)NC(=O)[C@H](CCCNC(=N)N)NC(=O)[C@@H](Cc2c[nH]c3ccccc23)NC(=O)[C@H](C)NC(=O)[C@H](CCCNC(=N)N)NC(=O)C[C@@H]2CCCN2C(=O)Cc2ccc(cc2)CSCCCCNC(=O)C2CCN(CC2)C(=O)[C@@H](CCCCN)NC(=O)[C@H](CCCNC(=N)N)NC(=O)[C@@H](Cc2c[nH]c3ccccc23)NC1=O [ArBMim, [-Bmpa-bhPro-Arg-Ala-Trp-Arg-Lys-Inp-CH2CH2CH2CH2-S-]2] (cyclo([Inp][X1][β3hP]RA[dW]R[dK][Inp][X1][β3hP]RA[dW]R[dK])) |  |
